The numbers were not newly measured in patent US9969726B2, “Metabotropic glutamate receptor negative allosteric modulators (NAMS) and uses thereof” (Sanford-Burnham Medical Research Institute, priority 2014, dated 2018), which cites them from elsewhere.

For series [1], the system named is R6/2 mice. As to conditions: 20 mg/kg daily subcutaneous injection beginning at 4 weeks; cited from earlier work.
The test system of series [2] is cultured spinal cord astrocytes. The conditions noted are these: astrocytes from wild-type and mGlu2 knockout mice, not mGlu3 knockout mice; cited from earlier work.
Series [3] relates to SMI-32+ motor neurons. As to conditions: abrogated by anti-GDNF antibodies; cited from earlier work.
In series [4] the test system is SOD1G93A mice. As to conditions: continuous treatment with 1 or 5 mg/kg/day; cited from earlier work.
Series [5] concerns reserpine-treated rat. As to conditions: cited from earlier work.

With `N[C@@]1(C(=O)O)CO[C@H]2[C@H](C(=O)O)[C@H]21` [LY379268], the “phenotype in R6/2 mice” value in series [1] is recorded as “dramatically improves the phenotype”. For the same compound, in series [2], the GDNF levels result is “enhanced GDNF levels”. Besides, in series [3], the “protection of motor neurons against excitotoxic death” value is listed as “protected”. Besides, in series [4], the neurological disability result is recorded as “beneficial effect on neurological disability”. In addition, the locomotor activity result in series [5] (intracerebroventricular 1, 5, 10, 20 nmol/2 μl, reserpine 5 mg/kg ip) is given as “dose-dependent increase in locomotor activity”. The “reversal of reserpine-induced akinesia” value in series [5] (systemic 0.1, 1, 10 mg/kg ip) was “did not reverse reserpine-induced akinesia”.
